Experimental data reported in patent US10463685B2, “Telomerase mediated telomere altering compounds” (The Board of Regents of The University of Texas System, priority 2013, dated 2019).
Like-named read-outs stand apart in the source and are kept apart here. [tNP] = thio-phosphoramidate internucleoside linkage; {Palm} = palmitoyl group

Legend:
[1] = tested on: HCT116 cells; experiment: TIF assay, gamma-H2AX and TRF2 immuno-staining; assay type: cell-based, human; details: HCT116, 3 μM
Procedure: Briefly, HCT116 cells were plated in 4-well chamber slides and after the cells attached to the surface, either 3 μM 6-thio-dG or 3 μM 6-thio-G was added to the medium at different time points (0, 30 min, 12 h, 24 h, 48 h, 72 h). […] TIFs were quantified using Imaris software.
Cancer HCT116 cells were seeded in chamber slides. Following cell attachment, 6-thio-dG (3 μM) and 6-thio-G (3 μM) were added to fresh medium at various time points (0, 30 min, 2 h, 12 h, 24 h, 48 h, 72 h). To test if 6-thio-dG and 6-thio-G cause telomere dysfunction in cancer cells, TIF analysis was conducted. […] 6-thio-dG treatment causes a 2.8-fold increase in telomeric DNA damage as compared to 6-thio-G after 72 h (FIG. 4).

[2] = Toxicity testing in rats; assay type: in vivo; details: for mortality: rats
Procedure: Six rats were treated with 15 mg of 6-thio-dG/kg of body weight every two days. […] Another 5 rats were treated with 50 mg of 6-thio-dG/kg of body weight every other day. All rats died after 12 days.

[3] = tested on: A549 human lung cancer cells; experiment: Tumor growth in xenograft animal model; assay type: in vivo, mice; details: 2.5 mg/kg every day
Procedure: Doses of 2.5 mg/kg of 6-thio-dG and 2.5 mg/kg of 6-thio-G were injected every day into mice after tumor implantation and providing time for tumor initiation. DMSO injections were used for the control. The volume of the tumor was measured.

[4] = tested on: BJ fibroblast cells; experiment: Telomere length assay (TRF), long-term culture; assay type: cell-based, human; details: BJ fibroblasts, 10 weeks
Procedure: (§1) For long-term cellular experiments, HCT116 (1,000 cells/cm^2) and BJ (10,000 cells/cm^2) cells were fed with 6-thio-dG (1, 3, 10 μM) containing medium every three days. The cells were counted and replated every week for 10-16 weeks. Additionally, HCT116 cells (1,000 cells/cm^2) were fed with 6-thio-G (1, 3, 10 μM) every three days and each week cells were counted, collected for TRF (Telomere Restriction Fragment) analysis and replated. HCT116 cells, following treatment with 10 μM 6-thio-dG for 12 weeks, were then treated with a combination of 10 μM 6-thio-dG and […] GRN163L for 2-4 weeks.
1×10^6 cells were collected and washed with PBS. DNA was isolated using the manufacturer's instructions (Qiagen, Valencia, Calif.). 2.5 μg DNA was digested with six different restriction enzymes (HhaI, HinfI, MspI, HaeIII, RsaI, AluI) (New England Bio, Ipswich, Mass.) and incubated at 37° C. overnight. […] Gels were exposed to a PhosphorImager screen overnight and analyzed using a Typhoon PhosphorImager scanner system (Molecular Dynamics).
To determine if 6-thio-dG and 6-thio-G causes progressive telomere shortening, telomere lengths of treated cells were evaluated by TRF assay. […]

[5] = tested on: HCT116 cells; experiment: Telomere length assay (TRF), long-term culture; assay type: cell-based, human
Procedure: as §1
1×10^6 cells were collected and washed with PBS. DNA was isolated using the manufacturer's instructions (Qiagen, Valencia, Calif.). 2.5 μg DNA was digested with six different restriction enzymes (HhaI, HinfI, MspI, HaeIII, RsaI, AluI) (New England Bio, Ipswich, Mass.) and incubated at 37° C. overnight. Digested DNA was separated on a 0.7% agarose gel overnight at 70 V. The terminal restriction fragment (TRF) gel was denatured for 20 min in denaturating solution (0.5 M NaOH, 1.5 M NaCl, pH 13.2) and dried on Whatman 3 MM paper under vacuum for 3 hours at 56° C. The gel was neutralized for 15 minutes in neutralization buffer (1.5 M NaCl, 0.5 M Tris-HCl, pH 8.0) and then probed with a radiolabeled telomeric probe (C-rich) for 16 hours at 42° C. in 5×SSC buffer, 5×Denhardt's solution, 10 mmol/L Na2HPO4, and 1 mmol/L Na2H2P2O7. The gel was washed once with 2×SSC, 0.1% SDS, twice with 0.5×SSC, 0.1% SDS and then twice with 0.5×SSC, 1% SDS at room temperature for 15 min. Gels were exposed to a PhosphorImager screen overnight and analyzed using a Typhoon PhosphorImager scanner system (Molecular Dynamics).
To determine if 6-thio-dG and 6-thio-G causes progressive telomere shortening, telomere lengths of treated cells were evaluated by TRF assay. Cancer HCT116 and normal BJ fibroblast cells were treated with 1 μM or 10 μM of 6-thio-dG for 1-12 weeks every 3 days. In addition, HCT116 cells were also treated with 1 μM or 10 μM 6-thio-G for 1-10 weeks every 3 days to determine if there is any effect of this molecule on telomeric length maintenance. The control was untreated. Each week samples were collected for TRF analysis at 1×10^6 cells/sample at 1, 5, and 12 weeks for cells treated with 6-thio-dG and 1, 5, and 10 for cells treated with 6-thio-G.
HCT116 cells were treated with either 10 μM 6-thio-dG alone for 12-16 weeks, or with 3 μM GRN163L alone for 11 weeks. Then, these long term 6-thio-dG treated surviving cells were cultured with a combination of 6-thio-dG (10 μM) and/or GRN163L (3 μM) for 2-4 additional weeks. […] Specifically, the HCT116 cells were treated beyond the 12 weeks of 6-thio-dG treatment with either GRN163L only or GRN163L+6-thio-dG, for an additional 2 and 4 weeks to determine if there is an effect on telomere length.

[6] = tested on: HCT116 cells; experiment: Cell count and morphology after one week of treatment; assay type: cell-based, human; details: 3 μM, twice during one week
Excerpt: HCT116 represents a human colon cancer cells, A549 models human lung epithelial cancer cells, H2882 models human lung epithelial cancer cells, HCC2429 models human lung epithelial cancer cells, HCC827 models human lung epithelial cancer cells, HCC15 models human lung epithelial cancer cells, H2087 models human lung epithelial cancer cells, HCC4017 models human lung epithelial cancer cells, HCC515 models human lung epithelial cancer cells, H2009 models human lung epithelial cancer cells, BJ-hTERT cells model telomerase expressing normal human fibroblast cells, and BJ human fibroblasts (telomerase silent) were grown in a Media X (Hyclone, Logan, Utah) supplemented with 10% cosmic calf serum (Hyclone).
Cancer HCT116 and normal BJ fibroblast cells were treated with 6-thio-dG (3 μM) and 6-thio-G (3 μM) twice during one week. Following one week of the treatment, cell morphology was monitored, and then the cells were collected and counted.

[7] = assay type: in vivo
Procedure: Six WT mice were treated with 1.67 mg of 6-thio-dG/kg of body weight daily. Six WT mice were treated with 1.67 mg of 6-thio-G/kg of body weight daily. Six WT mice were treated with 5 mg of 6-thio-dG/kg of body weight daily. Six WT mice were treated with 5 mg of 6-thio-G/kg of body weight daily. The mice were given the appropriate dosage and weighed daily for 25 days. […] In comparison, the mice receiving 6-thio-G at the same dose lost between 1-2 grams (6-12% of initial weight) over the course of the 25 day treatment. […] In comparison, the mice receiving 6-thio-G at the same dose loss around 2 grams and all mice died by the 15th day of treatment.

| Compound | genomic DNA damage compared to 6-thio-G [1] | signs of impaired function in remaining animals ([2]; rat, in vivo, 15 mg/kg) | mortality ([2]; 15 mg/kg every two days, after 6 injections, six rats) | mortality ([2]; 50 mg/kg every other day, after 12 days, 5 rats) | histology of the residual tumors [3] | rate of tumor growth (tumor volume) compared to the control and 6-thio-G [3] | telomere shortening (TRF) compared to untreated control [4] | telomere length on continued treatment ([5]; HCT116, 10 μM, 12 weeks versus 16 weeks) | telomere shortening (TRF) ([5]; HCT116, 1 or 10 μM every 3 days, one week and five weeks) | telomere length after return to medium without drug ([5]; HCT116, 12 weeks 6-thio-dG, then no drug for 2-4 weeks) | cell count / cell death [6] | mortality ([7]; WT mice, 5 mg/kg daily, by the 15th day of treatment) | weight lost ([7]; mouse, in vivo, 5 mg/kg) | telomere shortening (TRF) compared to the control ([5]; HCT116, 3 μM alone, after 11 weeks) | telomere shortening compared with cells cultured with 6-thio-dG for 12, 14 and 16 weeks ([5]; HCT116, after 12 weeks of 10 μM 6-thio-dG, additional 2 and 4 weeks of treatment) |
| --- | --- | --- | --- | --- | --- | --- | --- | --- | --- | --- | --- | --- | --- | --- | --- |
| Nc1nc2c(ncn2[C@H]2C[C@H](O)[C@@H](CO)O2)c(=S)[nH]1 [6-thio-dG, 6-thio-deoxyguanosine] | overall increase in genomic DNA damage | no signs of impaired function | One rat died | All rats died | mostly fibrotic and often associated with apoptotic and inflammatory cells | rate of tumor growth was less | did not show enhanced telomere shortening | stabilized telomeres | telomere shortening was detectable | remained about the same | death of the vast majority of HCT116 cells |  |  |  |  |
| Nc1nc2nc[nH]c2c(=S)[nH]1 [6-thio-G, 6-thioguanine, reference compound] |  |  |  |  | mostly “healthy” growing cancerous cells |  | did not show enhanced telomere shortening |  |  |  |  | all mice died | around 2 grams |  |  |
| GRN163L: 13-mer thio-phophoramidate oligonucleotide 5′-TAGGGTTAGACAA-3′ with polmitoyl group at the 5′-end; direct competitive inhibitor of telomerase (all [tNP], 5' {Palm}, sugars by position and methylation of C not given here) [reference compound] |  |  |  |  |  |  |  |  |  |  |  |  |  | did not show any significant telomere shortening | increased telomere shortening |
